Data: ChEMBL document CHEMBL4387706, “Discovery of Novel Spiroindoline Derivatives as Selective Tankyrase Inhibitors” (J Med Chem, 2019)
In brackets after ≈: the same amount, converted by molar mass. Activity calls are given as the source filed them. The calls are words filed in the database; no cut-off is given here.

Columns and labels:
[1] = Permeability of the compound by PAMPA; assay type: ADME; conditions: read-out: permeability
[2] = Protein binding in human serum assessed as unbound fraction at 1 uM measured after 24 hrs by LC-MS/MS analysis; assay type: ADME, cell-free
[3] = Protein binding in mouse serum assessed as unbound fraction at 1 uM measured after 24 hrs by LC-MS/MS analysis; assay type: ADME, cell-free
[4] = Initial plasma concentration in Sprague-Dawley rat at 1 mg/kg, iv; assay type: ADME, organism-based
[5] = Half life in Sprague-Dawley rat at 1 mg/kg, iv; assay type: ADME, organism-based; conditions: in vivo
[6] = AUC (infinity) in Sprague-Dawley rat at 1 mg/kg, iv; assay type: ADME, organism-based; parameters: dose 1 mg/kg, route intravenous, time infinity; conditions: in vivo
[7] = Total clearance in Sprague-Dawley rat at 1 mg/kg, iv; assay type: ADME, organism-based; conditions: in vivo
[8] = Volume of distribution at steady state in Sprague-Dawley rat at 1 mg/kg, iv; assay type: ADME, organism-based; conditions: in vivo, read-out: Vdss
[9] = Cmax in Sprague-Dawley rat at 3 mg/kg, po; assay type: ADME, organism-based; parameters: dose 3 mg/kg, route oral; conditions: in vivo
[10] = Tmax in Sprague-Dawley rat at 3 mg/kg, po; assay type: ADME, organism-based; conditions: in vivo
[11] = AUC (infinity) in Sprague-Dawley rat at 3 mg/kg, po; assay type: ADME, organism-based; parameters: dose 3 mg/kg, time infinity, route oral; conditions: in vivo
[12] = Oral bioavailability in Sprague-Dawley rat at 3 mg/kg; assay type: ADME, organism-based; conditions: in vivo
[13] = target: Poly [ADP-ribose] polymerase 2 (Homo sapiens, UniProt Q9UGN5); assay: Inhibition of human recombinant N-terminal GST-tagged PARP2 (2 to 583 residues) expressed in baculovirus infected Sf9 cells assessed as reduction in auto-PARylation using histone as substrate measured after 45 mins in presence of biotinylated-NAD+ by ELISA
[14] = target: T1, Protein mono-ADP-ribosyltransferase PARP10 (Homo sapiens, UniProt Q53GL7); assay: Inhibition of human recombinant N-terminal TEV-cleavgae site-fused-FLAG/Polyhis-tagged PARP10 […] expressed in Escherichia coli assessed as reduction in auto-PARylation using histone as substrate measured after 45 mins in presence of biotinylated-NAD+ by ELISA
T1 sequence (Q53GL7 whole entry): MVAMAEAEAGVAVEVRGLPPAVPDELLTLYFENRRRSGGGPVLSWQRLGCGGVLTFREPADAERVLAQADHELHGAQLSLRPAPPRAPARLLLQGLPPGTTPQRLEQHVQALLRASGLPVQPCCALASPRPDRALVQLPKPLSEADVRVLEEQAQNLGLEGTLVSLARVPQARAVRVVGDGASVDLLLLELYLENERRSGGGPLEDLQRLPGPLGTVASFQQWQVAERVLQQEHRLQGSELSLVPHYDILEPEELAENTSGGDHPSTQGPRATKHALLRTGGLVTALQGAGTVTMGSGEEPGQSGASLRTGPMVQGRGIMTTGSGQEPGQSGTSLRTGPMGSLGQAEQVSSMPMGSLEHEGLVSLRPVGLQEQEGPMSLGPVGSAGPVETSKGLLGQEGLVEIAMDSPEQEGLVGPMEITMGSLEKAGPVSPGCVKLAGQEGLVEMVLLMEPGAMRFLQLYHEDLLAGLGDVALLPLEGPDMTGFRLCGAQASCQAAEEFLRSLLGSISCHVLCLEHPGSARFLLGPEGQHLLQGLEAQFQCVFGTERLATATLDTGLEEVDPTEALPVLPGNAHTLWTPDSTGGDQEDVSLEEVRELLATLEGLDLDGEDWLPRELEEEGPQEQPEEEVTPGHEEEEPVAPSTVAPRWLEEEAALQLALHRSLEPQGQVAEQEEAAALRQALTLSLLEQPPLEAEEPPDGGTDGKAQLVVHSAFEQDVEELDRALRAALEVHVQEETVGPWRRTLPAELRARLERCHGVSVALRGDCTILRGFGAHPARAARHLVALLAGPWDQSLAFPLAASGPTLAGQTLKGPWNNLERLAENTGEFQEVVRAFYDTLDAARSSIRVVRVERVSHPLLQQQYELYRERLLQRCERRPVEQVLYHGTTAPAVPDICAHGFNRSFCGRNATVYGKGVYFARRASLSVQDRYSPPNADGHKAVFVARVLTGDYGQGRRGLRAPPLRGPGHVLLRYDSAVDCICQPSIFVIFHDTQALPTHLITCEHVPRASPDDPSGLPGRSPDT

[15] = species: Homo sapiens; assay: Effect on hippo signaling protein in human COLO320DM cells assessed as change in AMOTL2 expression at 0.1 to 1 uM measured after 48 hrs by RT-PCR analysis; assay type: cell-based
[16] = species: Homo sapiens; assay: Effect on hippo signaling protein in human COLO320DM cells assessed as change in CTGF expression at 0.1 to 1 uM measured after 48 hrs by RT-PCR analysis; assay type: cell-based
[17] = species: Homo sapiens; assay: Effect on hippo signaling protein in human COLO320DM cells assessed as change in CYR61 expression at 0.1 to 1 uM measured after 48 hrs by RT-PCR analysis; assay type: cell-based
[18] = system: COLO 320DM; assay: Antitumor activity against human COLO320DM cells xenografted in mouse assessed as tumor growth inhibition at 40 mg/kg, ip administered twice daily for 11 days relative to control; assay type: functional; conditions: 264 h, read-out: TGI
[19] = Toxicity in mouse xenografted with human COLO320DM cells assessed as body weight loss at 40 mg/kg, ip administered twice daily for 11 days; assay type: organism-based; conditions: in vivo, 264 h
[20] = target: Poly [ADP-ribose] polymerase 1 (Homo sapiens, UniProt P09874)
Description: Inhibition of recombinant human PARP1 expressed in Escherichia coli assessed as reduction in auto-PARylation using histone as substrate measured after 45 mins in presence of biotinylated-NAD+ by ELISA

[21] = physchem; conditions: phosphate buffer, pH 7.4
[22] = in vitro; conditions: human, liver microsomes
Description: Stability in human liver microsomes assessed as parent compound remaining at 1 uM measured after 30 mins in presence of NADPH by LC-MS/MS analysis

[23] = in vitro; conditions: mouse, liver microsomes
Description: Stability in mouse liver microsomes assessed as parent compound remaining at 1 uM measured after 30 mins in presence of NADPH by LC-MS/MS analysis

Poly [ADP-ribose] polymerase 2, sequence (Q9UGN5 whole entry, the tested form may be a part): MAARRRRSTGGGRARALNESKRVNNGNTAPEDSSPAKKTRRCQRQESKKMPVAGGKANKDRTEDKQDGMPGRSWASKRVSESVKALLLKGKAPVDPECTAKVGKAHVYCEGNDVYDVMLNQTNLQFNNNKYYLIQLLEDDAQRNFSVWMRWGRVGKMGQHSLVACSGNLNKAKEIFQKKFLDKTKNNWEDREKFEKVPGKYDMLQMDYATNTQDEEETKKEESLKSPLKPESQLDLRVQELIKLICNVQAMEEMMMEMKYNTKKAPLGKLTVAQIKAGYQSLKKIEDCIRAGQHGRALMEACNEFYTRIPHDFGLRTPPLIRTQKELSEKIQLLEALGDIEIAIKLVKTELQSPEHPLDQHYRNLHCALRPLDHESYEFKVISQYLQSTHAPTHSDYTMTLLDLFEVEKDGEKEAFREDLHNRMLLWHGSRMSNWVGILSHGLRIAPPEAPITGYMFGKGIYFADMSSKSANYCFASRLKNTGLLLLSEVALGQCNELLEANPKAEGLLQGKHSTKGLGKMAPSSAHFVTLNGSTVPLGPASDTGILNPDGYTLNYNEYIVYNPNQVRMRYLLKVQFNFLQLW
Poly [ADP-ribose] polymerase 1, sequence (P09874 whole entry): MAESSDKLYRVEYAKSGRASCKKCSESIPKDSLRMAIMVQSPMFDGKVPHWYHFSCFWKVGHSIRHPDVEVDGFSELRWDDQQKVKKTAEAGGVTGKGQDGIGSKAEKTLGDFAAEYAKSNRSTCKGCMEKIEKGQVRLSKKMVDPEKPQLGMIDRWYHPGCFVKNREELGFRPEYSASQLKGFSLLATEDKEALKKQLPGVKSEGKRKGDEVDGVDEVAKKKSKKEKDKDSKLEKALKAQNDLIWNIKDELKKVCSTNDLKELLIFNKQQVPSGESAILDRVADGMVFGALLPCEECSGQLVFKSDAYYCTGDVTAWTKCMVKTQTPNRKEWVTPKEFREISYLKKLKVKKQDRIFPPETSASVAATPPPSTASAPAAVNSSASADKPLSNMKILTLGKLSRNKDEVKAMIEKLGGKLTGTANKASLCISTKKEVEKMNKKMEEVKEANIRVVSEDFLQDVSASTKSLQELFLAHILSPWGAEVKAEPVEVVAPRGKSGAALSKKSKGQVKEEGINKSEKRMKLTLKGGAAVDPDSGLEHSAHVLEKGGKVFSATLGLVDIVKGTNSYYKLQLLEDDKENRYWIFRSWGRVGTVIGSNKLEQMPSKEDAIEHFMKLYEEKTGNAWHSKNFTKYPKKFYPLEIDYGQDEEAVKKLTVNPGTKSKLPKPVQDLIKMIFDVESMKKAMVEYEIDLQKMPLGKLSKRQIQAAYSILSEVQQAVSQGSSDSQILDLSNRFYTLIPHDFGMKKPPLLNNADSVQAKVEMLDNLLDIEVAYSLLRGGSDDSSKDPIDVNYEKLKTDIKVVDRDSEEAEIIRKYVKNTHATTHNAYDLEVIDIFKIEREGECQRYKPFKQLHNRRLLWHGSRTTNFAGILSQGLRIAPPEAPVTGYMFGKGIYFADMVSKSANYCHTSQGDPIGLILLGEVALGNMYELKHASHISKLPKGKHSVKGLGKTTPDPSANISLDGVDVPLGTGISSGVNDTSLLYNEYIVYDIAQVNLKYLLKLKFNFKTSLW

Papp [1]: 11.4 ×10⁻⁶ cm/s
fraction unbound at 24 h, 1 µM [2]: 0.028
fraction unbound at 24 h, 1 µM [3]: 0.035
C0 [4]: 1540 nM
half-life [5]: 3.3 h
AUC(0-inf) [6]: 0.79 µM·h
clearance [7]: 39.7 mL/min/kg
Vd [8]: 1.79 L/kg
Cmax [9]: 230 nM
Tmax [10]: 4 h
AUC(0-inf) [11]: 2.33 µM·h
bioavailability [12]: 97.8%
IC50 [13]: > 100 µM
IC50 [14]: > 100 µM
IC50 [20]: > 100 µM
solubility at 1 h, 200 µM [21]: 1.5 µg/mL (≈ 2.83 µM)
remaining at 0.5 h, 1 µM [22]: 100%
remaining at 0.5 h, 1 µM [23]: 95.8%
SMILES: CS(=O)(=O)c1ccc(-c2nnc(/C=C/c3nnc(-c4ccc(C#N)cc4)o3)n2-c2ccccc2Cl)nc1
Activity [15]: inactive
Activity [16]: inactive
Activity [17]: inactive
inhibition in vivo at 40 mg/kg [18]: 48%
Activity [19]: Toxic
